The record followed here is ChEMBL document CHEMBL1833824, “Effects of cyclization on stability, structure, and activity of α-conotoxin RgIA at the α9α10 nicotinic acetylcholine receptor and GABA(B) receptor” (J Med Chem, 2011).

A word on the inhibition: it is the percentage by which the read-out fell short of the control. In general, IC50 refers to the midpoint of a concentration-inhibition curve. Lower therefore signals higher potency.

Bridge positions count the residues as written; N and C are the ends. Square brackets hold non-standard residues; d marks the D form. Peptide text beside a SMILES is read from it. Hyp = O=C(O)[C@@H]1C[C@@H](O)CN1

For one test, the system named is Oocyte. Kind of test: Inhibition of human alpha-9/rat alpha-10 nACHR expressed in Xenopus oocytes assessed as inhibition of acetylcholine-induced current by voltage clamp assay relative to RgIA. In kind it is cell-based. To be noted: dose or concentration not given here.
Test [1] in a line: Inhibition of GABA-B receptor-mediated high voltage-activated Ca2+ channel current in Wistar rat DRG neurons by whole-cell patch clamp assay. Conditions: DRG neuron. In general terms: The patch-clamp technique gives a direct electrical read-out from membranes.

Regarding `N=C(N)NCCC[C@@H]1NC(=O)[C@H](Cc2ccc(O)cc2)NC(=O)[C@H](CCCNC(=N)N)NC(=O)[C@@H]2CSSC[C@H](NC(=O)CN)C(=O)N[C@@H](CSSC[C@@H](C(=O)O)NC1=O)C(=O)N[C@@H](CO)C(=O)N[C@@H](CC(=O)O)C(=O)N1C[C@H](O)C[C@H]1C(=O)N[C@@H](CCCNC(=N)N)C(=O)N2` (H-GCCSD[Hyp]RCRYRC-OH; disulfide 2-8, 3-12), the inhibition in the test with Oocyte came out at 41%. The IC50 in test [1] is 0.0205 µM.
